Laboratory results from ChEMBL document CHEMBL2346657, “Synthesis of novel 2-amino-4-(5'-substituted 2'-phenyl-1H-indol-3'-yl)-6-aryl-4H-pyran-3-carbonitrile derivatives as antimicrobial and antioxidant agents” (2013).
Activity calls are given as the source filed them. How the calls were made is not given here.

How the values were obtained:
Format in all cases: functional
Aspergillus flavus [1] = test: Antimicrobial activity against Aspergillus flavus MTCC 1973 at 750 ug/ml after 72 hrs by cup plate method; details: MTCC 1973, 72 h, read-out: IZ
Aspergillus niger [2] = test: Antimicrobial activity against Aspergillus niger MTCC 281 at 750 ug/ml after 72 hrs by cup plate method; details: MTCC 281, 72 h, read-out: IZ
Aspergillus terreus [3] = test: Antimicrobial activity against Aspergillus terreus MTCC 1782 at 1000 ug/ml after 72 hrs by cup plate method; details: MTCC 1782, 72 h, read-out: IZ
Klebsiella pneumoniae [4] = test: Antimicrobial activity against Klebsiella pneumoniae NCTC 13368 at 500 ug/ml after 24 hrs by cup plate method; details: NCTC 13368, 24 h, read-out: IZ
Aspergillus oryzae [5] = test: Antimicrobial activity against Aspergillus oryzae MTCC 3567 at 500 ug/ml after 72 hrs by cup plate method; details: MTCC 3567, 72 h, read-out: IZ
Aspergillus flavus [6] = test: Antimicrobial activity against Aspergillus flavus MTCC 1973 at 500 ug/ml after 72 hrs by cup plate method; details: MTCC 1973, 72 h, read-out: IZ
Aspergillus niger [7] = test: Antimicrobial activity against Aspergillus niger MTCC 281 at 500 ug/ml after 72 hrs by cup plate method; details: MTCC 281, 72 h, read-out: IZ
Staphylococcus aureus [8] = test: Antimicrobial activity against Staphylococcus aureus ATCC 29513 at 750 ug/ml after 24 hrs by cup plate method; details: ATCC 29513, 24 h, read-out: IZ
[9] = Antioxidant activity assessed as metal chelating activity by measuring inhibition of ferrozine-Fe2+ complex formation at 25 to 100 ug/ml
Staphylococcus aureus [10] = test: Antimicrobial activity against Staphylococcus aureus ATCC 29513 at 500 ug/ml after 24 hrs by cup plate method; details: ATCC 29513, 24 h, read-out: IZ
Klebsiella pneumoniae [11] = test: Antimicrobial activity against Klebsiella pneumoniae NCTC 13368 at 750 ug/ml after 24 hrs by cup plate method; details: NCTC 13368, 24 h, read-out: IZ
Aspergillus oryzae [12] = test: Antimicrobial activity against Aspergillus oryzae MTCC 3567 at 1000 ug/ml after 72 hrs by cup plate method; details: MTCC 3567, 72 h, read-out: IZ
Staphylococcus aureus [13] = test: Antimicrobial activity against Staphylococcus aureus ATCC 29513 at 1000 ug/ml after 24 hrs by cup plate method; details: ATCC 29513, 24 h, read-out: IZ
Escherichia coli [14] = test: Antimicrobial activity against Escherichia coli MTCC 723 at 750 ug/ml after 24 hrs by cup plate method; details: MTCC 723, 24 h, read-out: IZ
Aspergillus terreus [15] = test: Antimicrobial activity against Aspergillus terreus MTCC 1782 at 750 ug/ml after 72 hrs by cup plate method; details: MTCC 1782, 72 h, read-out: IZ
Aspergillus flavus [16] = test: Antimicrobial activity against Aspergillus flavus MTCC 1973 at 1000 ug/ml after 72 hrs by cup plate method; details: MTCC 1973, 72 h, read-out: IZ
Pseudomonas aeruginosa [17] = test: Antimicrobial activity against Pseudomonas aeruginosa MTCC 1688 at 750 ug/ml after 24 hrs by cup plate method; details: MTCC 1688, 24 h, read-out: IZ
Pseudomonas aeruginosa [18] = test: Antimicrobial activity against Pseudomonas aeruginosa MTCC 1688 at 500 ug/ml after 24 hrs by cup plate method; details: MTCC 1688, 24 h, read-out: IZ
Escherichia coli [19] = test: Antimicrobial activity against Escherichia coli MTCC 723 at 1000 ug/ml after 24 hrs by cup plate method; details: MTCC 723, 24 h, read-out: IZ
Aspergillus niger [20] = test: Antimicrobial activity against Aspergillus niger MTCC 281 at 1000 ug/ml after 72 hrs by cup plate method; details: MTCC 281, 72 h, read-out: IZ
Pseudomonas aeruginosa [21] = test: Antimicrobial activity against Pseudomonas aeruginosa MTCC 1688 at 1000 ug/ml after 24 hrs by cup plate method; details: MTCC 1688, 24 h, read-out: IZ
Escherichia coli [22] = test: Antimicrobial activity against Escherichia coli MTCC 723 at 500 ug/ml after 24 hrs by cup plate method; details: MTCC 723, 24 h, read-out: IZ
Aspergillus oryzae [23] = test: Antimicrobial activity against Aspergillus oryzae MTCC 3567 at 750 ug/ml after 72 hrs by cup plate method; details: MTCC 3567, 72 h, read-out: IZ
Aspergillus terreus [24] = test: Antimicrobial activity against Aspergillus terreus MTCC 1782 at 500 ug/ml after 72 hrs by cup plate method; details: MTCC 1782, 72 h, read-out: IZ
Klebsiella pneumoniae [25] = test: Antimicrobial activity against Klebsiella pneumoniae NCTC 13368 at 1000 ug/ml after 24 hrs by cup plate method; details: NCTC 13368, 24 h, read-out: IZ

| SMILES | zone of inhibition at 750 µg/mL (Aspergillus flavus [1]) [mm] | zone of inhibition at 750 µg/mL (Aspergillus niger [2]) [mm] | zone of inhibition at 1000 µg/mL (Aspergillus terreus [3]) [mm] | zone of inhibition at 500 µg/mL (Klebsiella pneumoniae [4]) [mm] | zone of inhibition at 500 µg/mL (Aspergillus oryzae [5]) [mm] | zone of inhibition at 500 µg/mL (Aspergillus flavus [6]) [mm] | zone of inhibition at 500 µg/mL (Aspergillus niger [7]) [mm] | zone of inhibition at 750 µg/mL (Staphylococcus aureus [8]) [mm] | Activity [9] | zone of inhibition at 500 µg/mL (Staphylococcus aureus [10]) [mm] | zone of inhibition at 750 µg/mL (Klebsiella pneumoniae [11]) [mm] | zone of inhibition at 1000 µg/mL (Aspergillus oryzae [12]) [mm] | zone of inhibition at 1000 µg/mL (Staphylococcus aureus [13]) [mm] | zone of inhibition at 750 µg/mL (Escherichia coli [14]) [mm] | zone of inhibition at 750 µg/mL (Aspergillus terreus [15]) [mm] | zone of inhibition at 1000 µg/mL (Aspergillus flavus [16]) [mm] | zone of inhibition at 750 µg/mL (Pseudomonas aeruginosa [17]) [mm] | zone of inhibition at 500 µg/mL (Pseudomonas aeruginosa [18]) [mm] | zone of inhibition at 1000 µg/mL (Escherichia coli [19]) [mm] | zone of inhibition at 1000 µg/mL (Aspergillus niger [20]) [mm] | other results |
| --- | --- | --- | --- | --- | --- | --- | --- | --- | --- | --- | --- | --- | --- | --- | --- | --- | --- | --- | --- | --- | --- |
| O=c1[nH]cnc2c1C(c1c(-c3ccccc3)[nH]c3ccccc13)C=C(c1ccc(Cl)cc1)O2 (stereo not given) | 9 | 8 | 5 | 9 | 10 | 10 | 8 | 5 | Active | 5 | 9 | 10 | 5 | 9 | 6 | 8 | 10 | 10 | 9 | 8 | zone of inhibition at 1000 µg/mL (Pseudomonas aeruginosa [21]): 10 mm; zone of inhibition at 500 µg/mL (Escherichia coli [22]): 9 mm; zone of inhibition at 750 µg/mL (Aspergillus oryzae [23]): 10 mm; zone of inhibition at 500 µg/mL (Aspergillus terreus [24]): 6 mm; zone of inhibition at 1000 µg/mL (Klebsiella pneumoniae [25]): 10 mm |
| Cc1ccc2[nH]c(-c3ccccc3)c(C3C=C(c4ccccc4)Oc4[nH]c(=S)nc(N)c43)c2c1 (stereo not given) | 6 | 3 | 8 | 5 | 3 | 9 | 4 | 9 | Active | 10 | 4 | 3 | 9 | 8 | 8 | 5 | 8 | 9 | 8 | 8 | zone of inhibition at 1000 µg/mL (Pseudomonas aeruginosa [21]): 8 mm; zone of inhibition at 500 µg/mL (Escherichia coli [22]): 8 mm; zone of inhibition at 750 µg/mL (Aspergillus oryzae [23]): 3 mm; zone of inhibition at 500 µg/mL (Aspergillus terreus [24]): 9 mm; zone of inhibition at 1000 µg/mL (Klebsiella pneumoniae [25]): 4 mm |
| Nc1n[nH]c2c1C(c1c(-c3ccccc3)[nH]c3ccc(Cl)cc13)C=C(c1ccccc1)O2 (stereo not given) | 12 | 5 | 3 | 6 | 12 | 12 | 6 | 8 | Active | 10 | 5 | 12 | 8 | 7 | 3 | 9 | 12 | 12 | 9 | 5 | zone of inhibition at 1000 µg/mL (Pseudomonas aeruginosa [21]): 13 mm; zone of inhibition at 500 µg/mL (Escherichia coli [22]): 7 mm; zone of inhibition at 750 µg/mL (Aspergillus oryzae [23]): 12 mm; zone of inhibition at 500 µg/mL (Aspergillus terreus [24]): 2 mm; zone of inhibition at 1000 µg/mL (Klebsiella pneumoniae [25]): 5 mm |
| Cc1ccc2[nH]c(-c3ccccc3)c(C3C=C(c4ccccc4)Oc4[nH]nc(N)c43)c2c1 (stereo not given) | 2 | 5 | 9 | 3 | 9 | 5 | 5 | 5 | Active | 6 | 3 | 8 | 5 | 3 | 9 | 1 | 8 | 9 | 3 | 3 | zone of inhibition at 1000 µg/mL (Pseudomonas aeruginosa [21]): 8 mm; zone of inhibition at 500 µg/mL (Escherichia coli [22]): 3 mm; zone of inhibition at 750 µg/mL (Aspergillus oryzae [23]): 8 mm; zone of inhibition at 500 µg/mL (Aspergillus terreus [24]): 9 mm; zone of inhibition at 1000 µg/mL (Klebsiella pneumoniae [25]): 3 mm |
